Source: PMC5974779, “Prediction of Drug-Induced Hepatotoxicity Using Long-Term Stable Primary Hepatic 3D Spheroid Cultures in Chemically Defined Conditions” (Toxicological Sciences, 2018)
Like-named read-outs stand apart in the source and are kept apart here.

Tests used:
[1] = test system: rats; design: method as in McGill et al., 2012b; settings: in vivo; ref McGill et al., 2012b; cited from earlier work
[2] = cited from earlier work; for Extent of hepatic metabolism: ref DrugBank and Prescribers' Digital Reference database
[3] = test system: PHH 2D sandwich cultures; settings: cited from earlier work; for 2Dsw (Xu 2008) 100x: PHH 2D sandwich cultures, 100x Cmax, ref Xu 2008
[4] = test system: PHH spheroids (hanging-drop); settings: PHH hanging-drop spheroids, 100x Cmax; ref Proctor 2017; cited from earlier work
[5] = test system: C57BL/6 mouse primary hepatocyte 3D spheroids; experiment: Animal hepatocyte spheroid hepatotoxicity (ATP viability, 14 days), C57BL/6 (BL6) mouse; format: cell-based; settings: for hepatotoxicity evaluation in spheroids: C57BL/6 mouse hepatocyte spheroids, 1×, 5×, 20× human cmax, 14 days
[6] = test system: CD1 mouse primary hepatocyte 3D spheroids; experiment: Animal hepatocyte spheroid hepatotoxicity (ATP viability, 14 days), CD1 mouse; format: cell-based; settings: for hepatotoxicity evaluation in spheroids: CD1 mouse hepatocyte spheroids, 1×, 5×, 20× human cmax, 14 days
[7] = test system: Wistar rat primary hepatocyte 3D spheroids; experiment: Animal hepatocyte spheroid hepatotoxicity (ATP viability, 14 days), Wistar rat; format: cell-based; settings: for hepatotoxicity evaluation in spheroids: Wistar rat hepatocyte spheroids, 1×, 5×, 20× human cmax, 14 days
[8] = Animal hepatocyte spheroid hepatotoxicity (ATP viability, 14 days), minipig; format: cell-based, Gottingen minipig; settings: Gottingen, primary minipig hepatocyte 3D spheroids; minipig spheroids, no indication of hepatotoxicity
[9] = test system: rhesus monkey primary hepatocyte 3D spheroids; experiment: Animal hepatocyte spheroid hepatotoxicity (ATP viability, 14 days), rhesus monkey; format: cell-based; settings: for hepatotoxicity evaluation in spheroids: rhesus monkey hepatocyte spheroids, 1×, 5×, 20× human cmax, 14 days
[10] = test system: primary human hepatocytes (PHH) 3D spheroids
[11] = in vitro; settings: human
[12] = test system: clinical DILI in man; settings: cited from earlier work; for FDA (Severity): FDA drug labeling DILI concern; for Guo et al. (2005): ref Guo et al. (2005); for Xu et al. (2008): ref Xu et al. (2008); for Clinical DILI classification (Figure 5): structural analogue pairs, 2008 and others
[13] = therapeutic total cmax; ref PMID; cited from earlier work
[14] = test system: rat, mouse, dog, and cynomolgus monkey; design: method as in Manning and Swartz, 1995; settings: ref Manning and Swartz, 1995; cited from earlier work
[15] = test system: patients; settings: phase I clinical trial, ref McKenzie et al., 1995, cited from earlier work
[16] = test system: Gottingen minipig primary hepatocyte 3D spheroids; experiment: Animal hepatocyte spheroid hepatotoxicity (ATP viability, 14 days), minipig; format: cell-based; settings: minipig hepatocyte spheroids, 1×, 5×, 20× human cmax, 14 days
[17] = human liver, ref Yoon et al., 2016
[18] = DILI classification score, ref Suzuki et al. (2010)
[19] = FDA drug labeling DILI score, ref Chen et al., 2011
[20] = clinical DILI classification in man (POS/NEG)
[21] = clinical DILI classification used in this study, Supplementary Table 2, ref Chen et al., 2011, Guo et al., 2005, O'Brien et al., 2006, Sakatis et al., 2012, Suzuki et al., 2010, Xu et al., 2008
[22] = clinical DILI classification, Supplementary Table 1, ref Chen et al., 2011, Guo et al., 2005, O'Brien et al., 2006, Sakatis et al., 2012, Suzuki et al., 2010, Xu et al., 2008
[23] = reported pattern of liver damage, Supplementary Table 2, ref literature
[24] = clinical hepatotoxicity classification, ref Sakatis et al. (2012)
[25] = ref Chen et al., 2011, Xu et al.

Structure (SMILES) | Extent of hepatic metabolism [2] | 2Dsw (Xu 2008) 100x [3] | Hanging-drop spheroids (Proctor 2017) 100x [4] | Chemically defined spheroids (this study) 20x [10] | Cmax [13] | hepatotoxicity evaluation in CD-spheroids [10] | Suzuki et al. (2010) [12, 18] | FDA (Severity) ([12]; ref Chen et al., 2011) | FDA (0-8) [12, 19] | DILI in vivo [12, 20] | Classified as [12, 21] | DILI in vivo [12, 22] | Type of DILI [12, 23] | hepatotoxicity evaluation in spheroids [5] | hepatotoxicity evaluation in spheroids [6] | hepatotoxicity evaluation in spheroids [7] | hepatotoxicity evaluation in spheroids [16] | hepatotoxicity evaluation in spheroids [9] | Guo et al. (2005) ([12]; DILI classification score) | Xu et al. (2008) ([12]; clinical DILI classification) | further results
CC(=O)Nc1ccc(O)cc1 [Acetaminophen] | Extensive | Positive | Positive | – | – | – | – | – | – | – | – | – | – | – | – | – | – | – | – | – | acetaminophen-induced hepatotoxicity in rats [1]: resistant to acetaminophen-induced hepatotoxicity; fraction inactivated by sulfation or glucuronidation [2, 17]: around 90%; fraction metabolically activated by CYP2E1 and CYP3A4 to NAPQI [2, 17]: 5%–10%
Cc1ccc(-c2cc(C(F)(F)F)nn2-c2ccc(S(N)(=O)=O)cc2)cc1 [Celecoxib] | Extensive | – | – | Positive | 2.55 µM | – | – | – | – | – | – | – | – | – | – | – | – | – | – | – | viability ([5]; C57BL/6 mouse spheroids, 20× cmax): < 2 % of respective controls; viability ([6]; CD1 mouse spheroids, 20× cmax): < 2 % of respective controls; viability ([7]; rat spheroids, 20× cmax): < 2 % of respective controls; viability at 14 days [8]: > 100%; viability ([9]; monkey spheroids, 20× cmax): < 2 % of respective controls; viability at 14 days, 20 × cmax [11]: < 2%; Classified as ([12]; in vivo): POS; Clinical DILI class (panel heading of Figure 4) ([12]; in vivo): High DILI concern; DILI in vivo ([12]; in vivo): POS; FDA (0-8) ([12]; in vivo): 3; Suzuki et al. (2010) ([12]; in vivo): 1; Type of DILI ([12]; in vivo): Hepatocellular injury or Cholestatic injury
O=c1[nH]c(=O)n([C@@H]2O[C@H](CO)[C@@H](O)[C@@H]2F)cc1I [Fialuridine] | Minimal | – | – | Positive | 0.64 µM | successfully detect fialuridine hepatotoxicity at clinically relevant concentrations | 2 | most DILI concern | Discontinued | POS | POS | POS | Hepatocellular injury, Cholestatic injury or Mixed hepatitis | – | – | – | – | – | – | – | indications of hepatotoxicity in preclinical species [14]: did not show indications of hepatotoxicity; O'Brien et al. (2003) ([12]; clinical hepatotoxicity classification, ref O'Brien et al. (2003)): Severely; volunteers with lactic acidosis and acute liver failure ([15]; few weeks after commencing therapy): 7 out of 15; volunteers who died ([15]; of the 7 with acute liver failure): 5
CC(C)C(=O)Nc1ccc([N+](=O)[O-])c(C(F)(F)F)c1 [Flutamide] | Extensive | Negative | Positive | Positive | 5.43 µM | – | 2 | most DILI concern | 8 | POS | POS | POS | Hepatocellular injury, Cholestatic injury or Mixed hepatitis | flagged as hepatotoxic | flagged as hepatotoxic | flagged as hepatotoxic | flagged as hepatotoxic | flagged as hepatotoxic | 3 | Positive | O'Brien et al. (2003) ([12]; in vivo): Severely; Sakatis et al. (2012) ([12]; in vivo): Hepatotoxic; hepatotoxicity detection in 2D sandwich cultures of PHH ([3]; 100× cmax, 24 h, high content imaging, ref Xu et al., 2008): liver toxicity was not recognized
CCc1nn(CCCN2CCN(c3cccc(Cl)c3)CC2)c(=O)n1CCOc1ccccc1 [Nefazodone] | Extensive | Positive | Positive | Positive | 3.95 µM | – | 3 | – | 8 | POS | POS | POS | Hepatocellular injury | flagged as hepatotoxic | flagged as hepatotoxic | flagged as hepatotoxic | flagged as hepatotoxic | flagged as hepatotoxic | 3 | Positive | hepatotoxicity evaluation in CD-spheroids ([10]; human, 14 days): severe toxicity at 5× and 20× of the therapeutic exposure levels; Sakatis et al. (2012) [12, 24]: Hepatotoxic; Clinical DILI classification (Figure 5) [12, 25]: DILI positive
Cc1c(C)c2c(c(C)c1O)CCC(C)(COc1ccc(CC3SC(=O)NC3=O)cc1)O2 (centres unmarked) [Troglitazone] | Extensive | Positive | Positive | Positive | 6.08 µM | clearly detected | 3 | most DILI concern | Withdrawn | POS | POS | POS | Hepatocellular injury or Cholestatic injury | flagged as hepatotoxic | flagged as hepatotoxic | flagged as hepatotoxic | flagged as hepatotoxic | flagged as hepatotoxic | 3 | Positive | Sakatis et al. (2012) [12, 24]: Hepatotoxic; Clinical DILI classification (Figure 5) [12, 25]: DILI positive
